Data reported in patent US5719278A, “Tricyclic benzazepine vasopressin antagonists” (American Cyanamid Company, priority 1996, dated 1998).

Molecular target: T1, Rat Hepatic V1 Receptors (Rattus norvegicus, UniProt P30560)
T1 construct: Rat liver plasma membranes expressing the vasopressin V1 receptor subtypes; from tissue; host or cells: rat liver plasma membranes
Assay: Binding Assay to Rat Hepatic V1 Receptors
Details: Rat Hepatic V1 Receptors (no asterisk)
Procedure: Binding Assay to Rat Hepatic V1 Receptors
Rat liver plasma membranes expressing the vasopressin V1 receptor subtypes are isolated by sucrose density gradient according to the method described by Lesko et al., (1973). These membranes are quickly suspended in 50.0 mM Tris.HCl buffer, pH 7.4, containing 0.2% bovine serum albumin (BSA) and 0.1 mM phenylmethylsulfonylfluoride (PMSF) and kept frozen at -70° C. until used in subsequent binding experiments. For binding experiments, the following is added to the wells of a ninety-six well format microtiter plate: 100 μl of 100.0 mM Tris.HCl buffer containing 10.0 mM MgCl2, 0.2% heat inactivated BSA and a mixture of protease inhibitors: leupeptin, 1.0 mg %; aprotinin, 1.0 mg %, 1,10-phenanthroline,2.0 mg %; trypsin inhibitor, 10.0 mg % and 0.1 mM PMSF, 20.0 μl of [phenylalanyl-3,4,5-^3 H] vasopressin (S.A. 45.1 Ci/mmole) at 0.8 nM, and the reaction initiated by the addition of 80 μl of tissue membranes containing 20 μg of tissue protein. The plates are kept undisturbed on the bench top at room temperature for 120 min. to reach equilibrium. Non-specific samples are assayed in the presence of 0.1 μM of the unlabeled antagonist phenylalanylvasopressin, added in 20.0 μl volume to a final incubation volume of 200 μl. Upon completion of binding, the content of each well is filtered off, using a Brandel® cell Harvester (Gaithersburg, Md.). The radioactivity trapped on the filter disk by the ligand-receptor complex is assessed by liquid scintillation counting in a Packard LS Counter, with an efficiency of 65% for tritium. The data are analyzed for IC50 values by the LUNDON-2 program for competition (LUNDON SOFTWARE, Ohio).

T1 sequence (P30560 whole entry): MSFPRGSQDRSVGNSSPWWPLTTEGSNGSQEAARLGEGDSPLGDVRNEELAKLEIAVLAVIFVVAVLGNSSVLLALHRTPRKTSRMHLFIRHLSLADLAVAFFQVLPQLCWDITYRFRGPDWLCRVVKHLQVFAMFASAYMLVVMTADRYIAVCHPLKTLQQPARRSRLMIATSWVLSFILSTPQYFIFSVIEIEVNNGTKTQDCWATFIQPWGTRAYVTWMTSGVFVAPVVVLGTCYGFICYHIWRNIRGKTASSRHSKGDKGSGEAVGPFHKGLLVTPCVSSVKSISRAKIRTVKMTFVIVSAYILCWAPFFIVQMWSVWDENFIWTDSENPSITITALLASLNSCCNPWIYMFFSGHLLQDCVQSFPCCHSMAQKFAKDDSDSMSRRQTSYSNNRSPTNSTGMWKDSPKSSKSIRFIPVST

IC50: 2 µM
SMILES: O=C(Nc1ccc(C(=O)N2CCc3cn[nH]c3-c3sccc32)cc1)c1ccc(F)cc1Cl [Example 1, N-[4-[(4,5-Dihydropyrazolo[3,4-d]thieno[3,2-b]azepin-6(1H)-yl)carbonyl]phenyl]-2-chloro-4-fluorobenzamide]
